The data set can be described thus: gradient 5% acetonitrile 3 min, to 50% in 2 min, to 85% in 15 min, held 3 min, 100 µL/min. The settings on record: column: Zorbax Extend-C18 2.1 x 50 mm; eluents: water / acetonitrile, 0.1% formic acid. A digest of the protocol: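 In both positive and negative ionization mode, a quadrupole time-of-flight mass spectrometer coupled to HPLC analyzed pure standards run in mixtures of ~100 molecules. The Zorbax Extend-C18 column (2.1 × 50 mm, 1.8 μm) was operated at 100 μL/min with water and acetonitrile, each containing 0.1% formic acid. The dead volume was 40 μL and the dwell volume 900 μL. Retention time came from adduct peaks that were computationally picked and individually inspected by hand.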
In turn, `O=C(Cn1nc(C2CC2)cc1C(=O)N1CCCC1)NCc1ccc(F)cc1` gave an RP-LC retention time of 738 s. The result for `Cc1nc(-c2noc(-c3ccccc3)n2)cn1CC(=O)N1CCN(c2ccc(F)cc2)CC1` reads 868 s; that for `Cc1ccccc1CNC1=NCCNC12CCN(S(=O)(=O)c1ccc(Cl)cc1)CC2`, 753 s. The result for `O=C(Nc1ccc(Cl)c(Cl)c1)N1CC(c2nc(-c3cnccn3)no2)C1` reads 746 s; that for `O=C1c2ccccc2C(=O)c2c(O)c(NCCNCCO)cc(O)c21`, 653 s. The result for `CC(C)n1c(=O)oc2cc(-c3noc(-c4ccccc4F)n3)ccc21` reads 1160 s; that for `O=C(NC1CCCCC1)c1nc(-c2ccncc2)cs1`, 660 s.

In turn, `COc1ccc(C)cc1NC(=O)N1CCN(Cc2nc3cc(C)ccc3o2)CC1` showed an RP-LC retention time of 761 s. As for `Cc1cc(=O)n(CC(=O)Nc2cccc(Cl)c2)c(N2CCCCC2)n1`, the figure is 701 s; as for `Cc1nc(N(C)C)cc(N2CCN(C(=O)c3cccc(Br)c3)CC2)n1`, 656 s; as for `Cc1ccc(C(CC(=O)NCCN2CCOCC2)N2Cc3ccccc3C2=O)cc1` (stereo not given), 642 s.

Compound `CCn1cc(CC(=O)NC(C)c2ccc(F)cc2)c2cccnc21` (stereo not given) showed an RP-LC retention time of 732 s. In turn, `COCCN1C(=O)CCc2cc(NS(=O)(=O)c3ccccc3Cl)ccc21` registered an RP-LC retention time of 771 s. `O=c1c2sccc2n(Cc2nc(-c3cccc(C(F)(F)F)c3)no2)c(=O)n1Cc1ccccc1` yielded an RP-LC retention time of 1190 s. On to `Cc1ccc(C)c(NC(=O)Cn2c(N3CCC(C)CC3)nc(C)cc2=O)c1`, for which the RP-LC retention time is 772 s.

Turning to `CNC(=O)c1ccc(Nc2c(-c3ccc(OC)c(OC)c3)nc3cnccn23)cc1`, the RP-LC retention time worked out at 606 s. The result for `COc1ccc(Cl)cc1S(=O)(=O)N1CCCC(C(=O)NCCc2ccccc2)C1` (stereo not given) reads 935 s. In turn, `CCOc1ccccc1C(=O)NC1CCN(c2cc(-c3cccs3)[nH]n2)C1` (stereo not given) yielded an RP-LC retention time of 769 s. As for `Cc1nnc2cc(N3CCN(C(=O)Nc4ccccc4Cl)CC3)cnn12`, the RP-LC retention time turned out to be 567 s. As for `CC(C)c1ccc(Sc2ccc(N3CCC(C(=O)NCCCO)CC3)nn2)cc1`, the figure is 703 s; as for `CCNc1cc(N2CCC(CCC(=O)N3CCN(C(C)=O)CC3)CC2)ncn1`, 562 s. Take `Cc1nn(C(C)C(=O)NCCCN2CCCC2)c(=O)c2nn(-c3ccccc3)c(C)c12` (stereo not given): the RP-LC retention time was found to be 614 s.

In turn, `CC(C)(C)c1csc(-c2csc(S(=O)(=O)NCC3CCCCC3)c2)n1` came in with an RP-LC retention time of 1410 s. As for `CCc1ccc(-c2noc(CN3C(=O)COc4ccc(S(=O)(=O)CC)cc43)n2)cc1`, the figure is 1000 s. `COc1ccc(-c2noc(C3CCN(CC(=O)Nc4ccc5c(c4)OCO5)CC3)n2)cc1`: the RP-LC retention time is 703 s. As for `O=C(CCc1nnc2ccc(N3CCCC3)nn12)N1CCN(c2ccccn2)CC1`, the figure is 585 s; as for `COc1ccc2nc(NC(=O)CCCN3C(=O)C4C5C=CC(C5)C4C3=O)sc2c1` (stereo not given), 817 s; as for `CCS(=O)(=O)c1ccc2c(c1)N(Cc1nc(-c3ccc(OC)c(OC)c3)no1)C(=O)CO2`, 817 s. As for `CNC(=O)C1CCCN(C(=O)Nc2ccc(NC(=O)Nc3ccccc3)cc2)C1` (stereo not given), the figure is 663 s; as for `Cc1nc(N2CCOCC2)c2c(C(=O)NCc3ccc(F)cc3)c(C)oc2n1`, 702 s.

In turn, `CCOc1ccc(S(=O)(=O)N2CCCC(C(=O)NCc3cccnc3)C2)cc1` (stereo not given) yielded an RP-LC retention time of 650 s.

Compound `O=C(NCCCN1CCCC1)c1ccc(-c2ccc(NCc3ccccc3)nn2)cc1` had an RP-LC retention time of 586 s. In turn, `O=C(N[C@@H]1CN(c2ccncn2)C[C@H]1CO)C1CCCC1` had an RP-LC retention time of 550 s. The result for `CCC(CC)C(=O)Nc1nc(-c2ccc3c(c2)N(CC)C(=O)CO3)c(C)s1` reads 1270 s.

The compound `CC(C)C(NC(=O)c1ccco1)c1nc(-c2ccc3c(c2)ncn3C)no1` (stereo not given) had an RP-LC retention time of 650 s. As for `COc1ccc(S(=O)(=O)NCCc2cn(C)c3ncccc23)cc1`, the figure is 696 s; as for `O=C1CC(c2noc(-c3ccccc3F)n2)CN1c1ccc(F)c(Cl)c1` (stereo not given), 1050 s; as for `COc1ccc(Nc2c(C(=O)N3CCCCC3)cnc3nc(C)ccc23)cc1OC`, 588 s.

Turning to `COc1nc2ccccc2nc1N1CCCC(C(=O)Nc2ccc(Br)cc2)C1` (stereo not given), the RP-LC retention time is 1250 s. The compound `CCCNC(=O)Cn1cnc2sc(C(=O)NC3CCCC(C)C3C)c(C)c2c1=O` (stereo not given) had an RP-LC retention time of 857 s. The result for `O=C(NCc1ccc(F)c(Cl)c1)c1cn2c(n1)CCCC2` reads 628 s. As for `O=C(CCNc1c(-c2cccc(F)c2)nc2cnccn12)NCc1ccccc1Cl`, the figure is 780 s; as for `COc1ccc(Cl)cc1NC(=O)c1cc(C)n2nc(C)cc2n1`, 1160 s. As for `Cc1ccc(NC(=O)C2CCCN(c3nc4ccccc4nc3C(F)(F)F)C2)c(C)c1` (stereo not given), the figure is 1230 s. Regarding `Cc1nc(C2CC23CCN(S(=O)(=O)c2cccnc2)CC3)no1` (stereo not given), the RP-LC retention time stood at 726 s. As for `CCN(CC)CCNC(=O)CSCc1ccc(C)cc1`, the figure is 631 s; as for `COc1cc(NC(=O)c2ccc(-c3ccc(Cl)cc3)o2)cc(OC)c1`, 1170 s; as for `Cc1ccc(-c2noc(-c3cccc(S(=O)(=O)NCCN4CCCCCC4)c3)n2)cc1`, 794 s. For the compound `Cc1nn(Cc2nc(-c3ccc(NC(=O)c4ccsc4)cc3)oc2C)c(C)c1C`, the RP-LC retention time turned out to be 955 s. As to `Nc1cc(C2CCN(C(=O)Cc3ccccc3F)CC2)no1`, the RP-LC retention time amounted to 676 s. Take `Nc1cc(C2CCN(C(=O)c3ccc4c(c3)OCO4)CC2)no1`: the RP-LC retention time is 651 s. In the case of `Cc1ccc(CCNC(=O)Cn2nc(-n3cccc3)c3c(C)cc(C)nc32)cc1`, the RP-LC retention time is 1070 s.

As for `Cc1ccccc1-c1nn2c(CSc3ccccc3)nnc2s1`, the RP-LC retention time is 1030 s.

Compound `O=C(Nc1cccc(F)c1)N1CCC2(C1)C(=O)Nc1ccccc12` (stereo not given) came in with an RP-LC retention time of 730 s. As for `O=C(NCC1CCCO1)C(=O)NCC(c1cccs1)S(=O)(=O)c1ccc(F)cc1` (stereo not given), the figure is 749 s; as for `O=C(CN1CCN(Cc2ccc(F)cc2)C1=O)N1CCN(c2ccccc2)CC1`, 824 s; as for `CN1C(=O)[C@H]2CN(Cc3cccc(OC(F)(F)F)c3)C[C@H]2C1=O`, 682 s. The result for `CCc1noc(NC(C)=O)c1-c1ccc(OC)c(S(=O)(=O)NCc2ccccc2C)c1` reads 884 s; that for `NC(=O)c1cc(-c2cccc(Cl)c2)n[nH]1`, 679 s. The result for `CCn1ccc(C(=O)N2CCc3c(-c4ccc(OC)cc4)cccc3[C@H]2C)n1` reads 966 s. `O=C(NCCCN1CCOCC1)c1ccc(-c2cnc(NC3CCCCC3)nc2)cc1` registered an RP-LC retention time of 655 s. As for `CS(=O)(=O)c1ccc(Cc2nnc(NC(=O)C3CCCC3)o2)cc1`, the figure is 632 s. Regarding `O=C(NCCn1nnc2cc(C(=O)N3CCCC3)ccc21)Nc1ccc(Br)cc1`, the RP-LC retention time worked out at 704 s. `CCCNC(=O)c1cn(-c2cc(-c3nc(C4CC4)no3)ccn2)cn1`: the RP-LC retention time turned out to be 818 s.

In turn, `CCNS(=O)(=O)c1cc(-c2csc(C)n2)ccc1OC` had an RP-LC retention time of 784 s. Regarding `Cc1ccc(-c2nnc(Cc3nc(-c4cccc(F)c4)no3)o2)cc1`, the RP-LC retention time worked out at 1060 s. For `CCOC(=O)C1CCN(S(=O)(=O)c2c(C)nc3sc(C)nn23)CC1`, the RP-LC retention time was found to be 804 s.

In the case of `O=S(=O)(c1cccnc1)N1CC(n2cc(COc3ccc(F)cc3)nn2)C1`, the RP-LC retention time stood at 798 s. `Cn1nc(-c2nc(C3CC3)no2)c2c1CCN(C(=O)c1cccc(C(F)(F)F)c1)C2` came in with an RP-LC retention time of 906 s. Compound `COc1cc(-c2nc3ncccn3c2Nc2cccc(C)c2)ccc1O` displayed an RP-LC retention time of 647 s. As for `CC1CCN(c2cncnc2-n2cc(NC(=O)NC3CCCCC3)cn2)CC1`, the figure is 744 s; as for `O=S(=O)(c1cccn2cnnc12)N(Cc1cccc(F)c1)c1ccc(F)c(F)c1`, 866 s.

`Cc1cc2nn(CC(=O)Nc3cccc(C(C)C)c3)c(=O)n2c(-c2ccccc2)n1`: the RP-LC retention time amounted to 955 s. Turning to `O=C(Nc1cnc(N2CCCC2)c(C(=O)O)c1)c1ccc(Cl)cc1`, the RP-LC retention time is 631 s.

`COc1ccc(CC(=O)N2CCCC2c2nc(-c3ccc(OC)c(OC)c3)no2)cc1OC` (stereo not given) gave an RP-LC retention time of 801 s. `c1cc2c(cc1-c1nnc(C3CCC3)o1)OCO2`: the RP-LC retention time was determined as 865 s.

In the case of `O=C(NCc1ccccc1F)C1CCN(c2cncnc2N2CCCC2)CC1`, the RP-LC retention time stood at 641 s.

For the compound `Cn1cnc(S(=O)(=O)N2CCCC(c3nnnn3-c3ccccc3)C2)c1` (stereo not given), the RP-LC retention time worked out at 690 s. As for `Cn1nc(C(=O)N2C[C@@H]3C[C@H](NC(=O)c4cccnc4)[C@H]2C3)c2ccccc21`, the figure is 636 s. As for `O=C(c1cccnc1)N1CCc2cc(-c3ccno3)ccc21`, the figure is 683 s.
